Reference: article PMC8213057, “Targeting ALK2: An Open Science Approach to Developing Therapeutics for the Treatment of Diffuse Intrinsic Pontine Glioma” (Journal of Medicinal Chemistry, 2020)

How the values were obtained:
CK1epsilon = CK1epsilon (Homo sapiens, UniProt P49674); details: 1 μM; Run 1, Run 2
DYRK1/DYRK1A = DYRK1/DYRK1A (Homo sapiens, UniProt Q13627); details: 1 μM; Run 1, Run 2
IRAK1 = IRAK1 (Homo sapiens, UniProt P51617); details: 1 μM; Run 1, Run 2
LOK/STK10 = LOK/STK10 (Homo sapiens, UniProt O94804); details: 1 μM; Run 1, Run 2
MEK5 = target: T1, MEK5 (Homo sapiens, UniProt Q13163); details: 1 μM; Run 1, Run 2
T1 sequence (Q13163 1-448): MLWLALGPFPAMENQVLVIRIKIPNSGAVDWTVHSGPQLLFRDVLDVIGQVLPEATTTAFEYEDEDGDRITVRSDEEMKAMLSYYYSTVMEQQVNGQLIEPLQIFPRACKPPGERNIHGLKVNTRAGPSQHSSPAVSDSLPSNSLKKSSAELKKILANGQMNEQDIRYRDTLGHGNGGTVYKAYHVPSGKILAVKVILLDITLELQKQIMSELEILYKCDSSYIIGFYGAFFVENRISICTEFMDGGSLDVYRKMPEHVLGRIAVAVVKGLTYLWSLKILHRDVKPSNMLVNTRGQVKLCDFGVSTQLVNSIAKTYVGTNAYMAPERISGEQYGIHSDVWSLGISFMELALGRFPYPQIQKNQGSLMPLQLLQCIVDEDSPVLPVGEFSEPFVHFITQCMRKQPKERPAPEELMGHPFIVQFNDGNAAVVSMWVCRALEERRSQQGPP

MSK2/RPS6KA4 = MSK2/RPS6KA4 (Homo sapiens, UniProt O75676); details: 1 μM; Run 1, Run 2
STK38/NDR1 = STK38/NDR1 (Homo sapiens, UniProt Q15208); details: 1 μM; Run 1, Run 2
TNK1 = target: T2, TNK1 (Homo sapiens, UniProt Q13470); details: 1 μM; Run 1, Run 2
T2 sequence (Q13470 1-666): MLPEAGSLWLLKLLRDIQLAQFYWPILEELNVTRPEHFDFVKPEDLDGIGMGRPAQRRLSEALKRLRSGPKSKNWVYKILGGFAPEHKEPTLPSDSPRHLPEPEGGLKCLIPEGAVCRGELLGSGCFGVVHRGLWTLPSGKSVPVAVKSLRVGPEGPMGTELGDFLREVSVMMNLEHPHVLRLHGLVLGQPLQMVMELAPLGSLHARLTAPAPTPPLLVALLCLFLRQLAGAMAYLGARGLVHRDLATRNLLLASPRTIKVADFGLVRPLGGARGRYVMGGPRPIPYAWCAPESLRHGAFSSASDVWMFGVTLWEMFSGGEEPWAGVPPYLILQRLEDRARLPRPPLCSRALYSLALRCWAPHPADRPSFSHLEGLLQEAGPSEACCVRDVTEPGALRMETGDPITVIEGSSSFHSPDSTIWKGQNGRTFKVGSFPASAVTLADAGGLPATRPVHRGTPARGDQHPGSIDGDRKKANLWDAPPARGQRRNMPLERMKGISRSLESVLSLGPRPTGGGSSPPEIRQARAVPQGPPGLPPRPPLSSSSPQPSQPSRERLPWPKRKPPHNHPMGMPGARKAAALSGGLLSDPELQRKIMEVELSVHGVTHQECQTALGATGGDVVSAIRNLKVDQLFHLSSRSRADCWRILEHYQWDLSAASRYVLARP

TSSK3/STK22C = target: T3, TSSK3/STK22C (Homo sapiens, UniProt Q96PN8); details: 1 μM; Run 1, Run 2
T3 sequence (Q96PN8 1-268): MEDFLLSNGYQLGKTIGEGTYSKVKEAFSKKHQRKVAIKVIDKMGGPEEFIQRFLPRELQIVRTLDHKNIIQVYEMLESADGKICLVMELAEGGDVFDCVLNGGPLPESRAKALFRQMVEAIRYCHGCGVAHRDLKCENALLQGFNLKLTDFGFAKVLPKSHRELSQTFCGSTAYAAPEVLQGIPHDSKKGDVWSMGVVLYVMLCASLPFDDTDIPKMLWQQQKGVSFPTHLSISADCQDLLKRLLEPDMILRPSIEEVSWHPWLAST

ABL2/ARG = ABL2/ARG (Homo sapiens, UniProt P42684); experiment: biochemical; details: read-out: % enzyme activity, 1 μM; Run 1, Run 2
AURORA B = AURORA B (Homo sapiens, UniProt Q96GD4); experiment: biochemical; details: read-out: % enzyme activity, 1 μM; Run 1, Run 2
CDK2/Cyclin A1 = CDK2/Cyclin A1 (Homo sapiens, UniProt P24941); experiment: biochemical; details: read-out: % enzyme activity, 1 μM; Run 1, Run 2
CK1g1 = CK1g1 (Homo sapiens, UniProt Q9HCP0); experiment: biochemical; details: read-out: % enzyme activity, 1 μM; Run 1, Run 2
ERN2/IRE2 = ERN2/IRE2 (Homo sapiens, UniProt Q76MJ5); experiment: biochemical; details: read-out: % enzyme activity, 1 μM; Run 1, Run 2
MEKK2 = target: T4, MEKK2 (Homo sapiens, UniProt Q9Y2U5); experiment: biochemical; details: read-out: % enzyme activity, 1 μM; Run 1, Run 2
T4 sequence (Q9Y2U5 1-619): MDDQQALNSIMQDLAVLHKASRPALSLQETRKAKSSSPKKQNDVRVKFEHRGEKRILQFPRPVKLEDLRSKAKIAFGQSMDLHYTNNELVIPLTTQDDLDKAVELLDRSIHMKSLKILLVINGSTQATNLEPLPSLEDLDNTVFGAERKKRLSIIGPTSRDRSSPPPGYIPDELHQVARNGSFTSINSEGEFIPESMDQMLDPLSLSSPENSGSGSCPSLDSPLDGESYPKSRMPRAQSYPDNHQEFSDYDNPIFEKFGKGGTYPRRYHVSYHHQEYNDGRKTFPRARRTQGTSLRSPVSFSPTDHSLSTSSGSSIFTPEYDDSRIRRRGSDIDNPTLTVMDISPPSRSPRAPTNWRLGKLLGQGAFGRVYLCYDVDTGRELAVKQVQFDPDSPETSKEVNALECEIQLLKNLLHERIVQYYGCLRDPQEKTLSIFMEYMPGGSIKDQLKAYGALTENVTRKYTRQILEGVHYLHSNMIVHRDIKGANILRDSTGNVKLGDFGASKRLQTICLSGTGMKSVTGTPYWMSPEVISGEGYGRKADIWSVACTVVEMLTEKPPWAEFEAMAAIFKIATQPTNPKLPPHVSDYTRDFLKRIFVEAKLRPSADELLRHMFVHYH

PAK6 = PAK6 (Homo sapiens, UniProt Q9NQU5); experiment: biochemical; details: read-out: % enzyme activity, 1 μM; Run 1, Run 2
RET = RET (Homo sapiens, UniProt P07949); experiment: biochemical; details: read-out: % enzyme activity, 1 μM; Run 1, Run 2
RET, sequence (P07949 29-1114): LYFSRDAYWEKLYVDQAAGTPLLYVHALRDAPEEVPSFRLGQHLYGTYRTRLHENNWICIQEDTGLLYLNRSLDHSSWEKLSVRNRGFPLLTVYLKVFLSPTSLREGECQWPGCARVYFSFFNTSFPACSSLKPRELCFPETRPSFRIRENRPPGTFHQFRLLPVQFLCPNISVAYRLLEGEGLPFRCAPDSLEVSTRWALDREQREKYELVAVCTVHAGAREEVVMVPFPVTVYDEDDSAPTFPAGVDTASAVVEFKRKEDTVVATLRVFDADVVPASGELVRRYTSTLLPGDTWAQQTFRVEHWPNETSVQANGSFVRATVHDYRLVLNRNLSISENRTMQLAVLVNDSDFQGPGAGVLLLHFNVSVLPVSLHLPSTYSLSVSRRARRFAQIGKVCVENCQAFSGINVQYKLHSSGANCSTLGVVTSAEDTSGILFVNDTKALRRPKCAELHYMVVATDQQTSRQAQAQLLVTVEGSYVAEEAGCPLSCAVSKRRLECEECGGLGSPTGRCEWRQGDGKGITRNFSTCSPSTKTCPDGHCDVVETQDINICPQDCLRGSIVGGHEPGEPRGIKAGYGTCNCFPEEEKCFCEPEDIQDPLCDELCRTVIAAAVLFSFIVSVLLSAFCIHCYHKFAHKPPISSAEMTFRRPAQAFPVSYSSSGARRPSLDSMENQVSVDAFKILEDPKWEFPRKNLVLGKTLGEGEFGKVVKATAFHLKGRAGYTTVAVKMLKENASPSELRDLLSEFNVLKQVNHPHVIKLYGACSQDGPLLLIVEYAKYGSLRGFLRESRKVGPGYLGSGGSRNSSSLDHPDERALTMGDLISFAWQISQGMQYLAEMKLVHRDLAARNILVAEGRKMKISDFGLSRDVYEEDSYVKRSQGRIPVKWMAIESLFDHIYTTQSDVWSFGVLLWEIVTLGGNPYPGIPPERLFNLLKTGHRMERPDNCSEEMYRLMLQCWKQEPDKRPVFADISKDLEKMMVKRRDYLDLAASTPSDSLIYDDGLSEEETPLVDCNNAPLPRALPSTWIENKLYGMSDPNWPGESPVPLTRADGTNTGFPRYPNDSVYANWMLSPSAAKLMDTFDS

ABL2/ARG, sequence (P42684 whole entry): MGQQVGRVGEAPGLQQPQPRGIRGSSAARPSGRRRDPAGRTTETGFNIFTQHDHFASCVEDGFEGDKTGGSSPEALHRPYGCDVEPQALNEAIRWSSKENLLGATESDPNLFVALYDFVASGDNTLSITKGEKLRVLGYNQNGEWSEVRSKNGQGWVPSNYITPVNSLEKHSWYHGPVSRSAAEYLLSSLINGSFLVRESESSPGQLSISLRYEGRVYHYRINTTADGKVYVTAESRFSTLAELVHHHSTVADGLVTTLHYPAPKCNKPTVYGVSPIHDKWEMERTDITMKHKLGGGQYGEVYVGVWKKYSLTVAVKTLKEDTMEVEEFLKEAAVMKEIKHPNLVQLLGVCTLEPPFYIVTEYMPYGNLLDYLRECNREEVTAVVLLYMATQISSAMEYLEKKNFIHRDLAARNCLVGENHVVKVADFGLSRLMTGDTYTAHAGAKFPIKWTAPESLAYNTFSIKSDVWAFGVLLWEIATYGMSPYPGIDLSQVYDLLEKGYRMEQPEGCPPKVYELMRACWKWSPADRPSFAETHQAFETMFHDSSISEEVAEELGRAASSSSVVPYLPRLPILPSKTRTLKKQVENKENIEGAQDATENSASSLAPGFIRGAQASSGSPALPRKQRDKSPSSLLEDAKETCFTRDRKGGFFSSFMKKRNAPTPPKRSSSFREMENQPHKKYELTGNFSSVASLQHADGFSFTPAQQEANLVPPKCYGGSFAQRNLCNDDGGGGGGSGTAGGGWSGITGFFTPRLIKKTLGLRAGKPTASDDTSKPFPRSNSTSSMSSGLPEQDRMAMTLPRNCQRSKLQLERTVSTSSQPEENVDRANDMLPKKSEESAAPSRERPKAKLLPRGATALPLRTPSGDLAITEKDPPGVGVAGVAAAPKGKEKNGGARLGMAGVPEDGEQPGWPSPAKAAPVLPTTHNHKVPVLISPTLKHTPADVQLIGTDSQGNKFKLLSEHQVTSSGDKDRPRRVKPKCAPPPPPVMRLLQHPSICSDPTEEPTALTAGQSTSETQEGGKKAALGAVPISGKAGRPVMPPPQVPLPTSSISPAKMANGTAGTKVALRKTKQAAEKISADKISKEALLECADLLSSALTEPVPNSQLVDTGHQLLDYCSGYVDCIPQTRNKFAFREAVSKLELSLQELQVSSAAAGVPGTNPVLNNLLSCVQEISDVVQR
LOK/STK10, sequence (O94804 whole entry): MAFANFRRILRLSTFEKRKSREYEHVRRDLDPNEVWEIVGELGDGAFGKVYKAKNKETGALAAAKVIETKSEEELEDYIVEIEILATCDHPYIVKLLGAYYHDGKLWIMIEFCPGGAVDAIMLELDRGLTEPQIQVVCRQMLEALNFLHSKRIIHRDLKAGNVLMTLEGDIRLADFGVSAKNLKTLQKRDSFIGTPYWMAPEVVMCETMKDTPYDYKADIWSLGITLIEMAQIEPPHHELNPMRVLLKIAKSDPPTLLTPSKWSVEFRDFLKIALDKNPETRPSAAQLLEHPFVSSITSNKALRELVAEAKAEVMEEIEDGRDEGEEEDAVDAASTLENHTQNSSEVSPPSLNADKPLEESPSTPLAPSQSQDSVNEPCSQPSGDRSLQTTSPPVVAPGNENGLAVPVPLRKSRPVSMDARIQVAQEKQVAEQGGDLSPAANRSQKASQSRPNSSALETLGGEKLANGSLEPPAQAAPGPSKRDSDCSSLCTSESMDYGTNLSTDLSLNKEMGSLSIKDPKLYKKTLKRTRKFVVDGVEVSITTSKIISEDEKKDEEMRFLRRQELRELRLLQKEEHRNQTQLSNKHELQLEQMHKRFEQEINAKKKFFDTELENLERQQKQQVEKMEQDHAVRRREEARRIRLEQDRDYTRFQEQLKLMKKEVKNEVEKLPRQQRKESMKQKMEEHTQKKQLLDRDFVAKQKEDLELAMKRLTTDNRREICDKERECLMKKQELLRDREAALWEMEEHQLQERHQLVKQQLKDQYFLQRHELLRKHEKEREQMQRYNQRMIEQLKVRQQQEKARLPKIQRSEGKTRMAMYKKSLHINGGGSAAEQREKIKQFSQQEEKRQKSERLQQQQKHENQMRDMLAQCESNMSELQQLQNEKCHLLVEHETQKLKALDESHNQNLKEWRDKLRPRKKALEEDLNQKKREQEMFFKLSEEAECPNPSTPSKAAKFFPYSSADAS
MSK2/RPS6KA4, sequence (O75676 whole entry): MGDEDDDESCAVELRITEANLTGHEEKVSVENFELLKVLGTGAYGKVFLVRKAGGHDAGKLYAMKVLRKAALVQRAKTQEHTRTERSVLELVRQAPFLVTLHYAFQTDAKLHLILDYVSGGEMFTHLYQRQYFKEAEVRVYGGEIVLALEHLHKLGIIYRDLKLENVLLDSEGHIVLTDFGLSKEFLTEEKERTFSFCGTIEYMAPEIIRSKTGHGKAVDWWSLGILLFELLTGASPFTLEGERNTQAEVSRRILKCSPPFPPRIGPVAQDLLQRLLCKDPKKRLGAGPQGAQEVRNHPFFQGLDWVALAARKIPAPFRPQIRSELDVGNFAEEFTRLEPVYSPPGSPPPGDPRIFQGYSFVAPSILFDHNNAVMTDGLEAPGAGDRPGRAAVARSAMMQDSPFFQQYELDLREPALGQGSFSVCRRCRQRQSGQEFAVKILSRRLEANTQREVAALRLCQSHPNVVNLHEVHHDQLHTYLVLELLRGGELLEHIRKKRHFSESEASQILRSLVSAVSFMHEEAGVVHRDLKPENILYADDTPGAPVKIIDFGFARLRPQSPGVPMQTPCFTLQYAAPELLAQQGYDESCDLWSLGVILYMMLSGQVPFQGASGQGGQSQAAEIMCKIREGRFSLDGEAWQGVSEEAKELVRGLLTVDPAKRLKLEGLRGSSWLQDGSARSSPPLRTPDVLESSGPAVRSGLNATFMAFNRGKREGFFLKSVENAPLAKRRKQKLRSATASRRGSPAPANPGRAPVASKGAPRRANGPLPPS
CK1epsilon, sequence (P49674 whole entry): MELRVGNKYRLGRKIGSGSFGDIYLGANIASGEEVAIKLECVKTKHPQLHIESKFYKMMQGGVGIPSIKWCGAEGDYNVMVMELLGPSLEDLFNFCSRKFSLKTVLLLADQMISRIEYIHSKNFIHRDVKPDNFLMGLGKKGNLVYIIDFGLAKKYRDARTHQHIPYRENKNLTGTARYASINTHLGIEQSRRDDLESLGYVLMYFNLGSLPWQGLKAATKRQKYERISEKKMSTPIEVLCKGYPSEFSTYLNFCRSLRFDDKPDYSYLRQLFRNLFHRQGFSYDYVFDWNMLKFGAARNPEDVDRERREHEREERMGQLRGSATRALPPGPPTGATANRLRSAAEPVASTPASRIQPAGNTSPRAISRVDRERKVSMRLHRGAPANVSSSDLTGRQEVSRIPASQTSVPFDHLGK
PAK6, sequence (Q9NQU5 whole entry): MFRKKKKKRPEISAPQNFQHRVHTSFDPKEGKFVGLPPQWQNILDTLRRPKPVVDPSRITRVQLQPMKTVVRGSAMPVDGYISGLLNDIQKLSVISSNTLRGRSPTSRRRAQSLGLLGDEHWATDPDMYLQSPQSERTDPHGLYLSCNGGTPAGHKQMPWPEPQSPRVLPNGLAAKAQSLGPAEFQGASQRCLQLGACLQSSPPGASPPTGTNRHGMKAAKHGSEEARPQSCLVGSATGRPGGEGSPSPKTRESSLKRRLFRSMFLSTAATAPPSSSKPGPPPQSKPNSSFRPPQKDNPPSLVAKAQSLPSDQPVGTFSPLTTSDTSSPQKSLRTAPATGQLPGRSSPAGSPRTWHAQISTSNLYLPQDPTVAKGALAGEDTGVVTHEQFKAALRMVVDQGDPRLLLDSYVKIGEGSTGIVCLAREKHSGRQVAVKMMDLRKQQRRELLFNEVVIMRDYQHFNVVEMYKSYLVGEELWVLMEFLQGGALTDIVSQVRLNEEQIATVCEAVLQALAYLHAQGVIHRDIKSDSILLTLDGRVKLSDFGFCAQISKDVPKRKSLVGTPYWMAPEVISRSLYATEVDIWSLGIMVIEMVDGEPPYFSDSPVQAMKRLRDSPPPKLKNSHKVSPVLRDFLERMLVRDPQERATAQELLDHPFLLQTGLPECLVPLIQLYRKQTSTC

Row | Structure (SMILES) | % enzyme activity (CK1epsilon) [%] | % enzyme activity (DYRK1/DYRK1A) [%] | % enzyme activity (IRAK1) [%] | % enzyme activity (LOK/STK10) [%] | % enzyme activity (MEK5) [%] | % enzyme activity (MSK2/RPS6KA4) [%] | % enzyme activity (STK38/NDR1) [%] | % enzyme activity (TNK1) [%] | % enzyme activity (TSSK3/STK22C) [%] | remaining activity at 1 µM (ABL2/ARG) [%] | remaining activity at 1 µM (AURORA B) [%] | remaining activity at 1 µM (CDK2/Cyclin A1) [%] | remaining activity at 1 µM (CK1g1) [%] | remaining activity at 1 µM (ERN2/IRE2) [%] | remaining activity at 1 µM (MEKK2) [%] | remaining activity at 1 µM (PAK6) [%] | remaining activity at 1 µM (RET) [%]
1 | COc1cc(-c2cncc(-c3ccc(N4CCN(C)CC4)cc3)c2C)cc(F)c1C(N)=O [Compound 26a, 2-Fluoro-6-methoxy-4-(4-methyl-5-(4-(4-methylpiperazin-1-yl)phenyl)pyridin-3-yl)benzamide] | 93.07 | 43.07 | 101.36 | 51.51 | 85.95 | 96.56 | 90.38 | 99.53 | 96.02 | 97.3 | 102 | 99.9 | 57.7 | 97.5 | 95 | 102 | 94.4
2 | COc1cc(-c2cncc(-c3ccc(N4C[C@@H](C)N(C)[C@@H](C)C4)cc3)c2C)cc(F)c1C(N)=O [Compound 26c, 2-Fluoro-6-methoxy-4-(4-methyl-5-(4-((3R,5S)-3,4,5-trimethylpiperazin-1-yl)phenyl)pyridin-3-yl)benzamide] | 90.08 | 60.05 | 97.90 | 68.53 | 92.97 | 92.01 | 93.15 | 98.22 | 95.64 | 97.1 | 105 | 98.2 | 71.7 | 98.9 | 98.8 | 96.3 | 96
